Earlier results, collected in patent US12004545B2, “Infant nutrition delivering metabolic benefits” (SOCIÉTÉ DES PRODUITS NESTLÉ S.A., priority 2016, dated 2024).

Details: value used in the GL calculation

Structure (SMILES)	GI of ingredient (available CHO)
OC[C@H]1O[C@@H](O[C@H]2[C@H](O)[C@@H](O)C(O)O[C@@H]2CO)[C@H](O)[C@@H](O)[C@H]1O (some centres unmarked) [lactose]	46
OC[C@H]1O[C@@](CO)(O[C@H]2O[C@H](CO)[C@@H](O)[C@H](O)[C@H]2O)[C@@H](O)[C@@H]1O [sucrose]	68
